Earlier results in patent publication US20140056804A1, “PHARMACEUTICAL COMPOUND WHICH INCLUDES CLINOPTILOLITE” (priority 2008, published 2014).

Details: NSAIDs such as naproxen

## COc1ccc2cc([C@H](C)C(=O)O)ccc2c1 [naproxen]
  patients with non-symptomatic mucosal breaks: ~80%
